Values quoted from earlier work as cited in patent US20160045473A1, “Biological Basis Of Adult Wellness” (priority 2012, published 2016).

Settings: healthy volunteers, at least one study

absorption: well absorbed
SMILES: O=C(O)[C@@H]1CCCN1 [proline, L-proline]
